The values below are quoted from earlier work in patent US20240280563A1, “SYSTEMS AND METHODS FOR ION CHANNEL KINETICS ANALYSIS IN CLUSTERS OF ION CHANNELS” (Ohio State Innovation Foundation, priority 2023, published 2024).

This data set deals with NaVs. Particulars: disruption of cooperativity with difopein; this and previous studies (Clatot et al. 2017; Zheng and Deschênes 2023).

On to difopein, for which the “effect on whole cell sodium current density” value is listed as “does not change significantly”.
